Active and inactive are the calls of the source. The calls are words filed in the database; no cut-off is given here.
Columns and labels:
[1] = system: GABA-A receptor, central benzodiazepine site (Rattus norvegicus); assay: Displacement of [3H]flumazenil from central benzodiazepine site of GABA-A receptor in rat cerebral cortex membrane after 90 mins
Translocator protein = Translocator protein (Rattus norvegicus, UniProt P16257); assay: Displacement of [3H]PK11195 from TSPO in rat kidney mitochondrial membrane
Sequence of Translocator protein (P16257 whole entry, looked up): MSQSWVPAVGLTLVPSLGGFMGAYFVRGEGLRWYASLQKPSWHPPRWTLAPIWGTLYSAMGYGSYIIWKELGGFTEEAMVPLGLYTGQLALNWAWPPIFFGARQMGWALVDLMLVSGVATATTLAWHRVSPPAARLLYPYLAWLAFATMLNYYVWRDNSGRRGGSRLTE

Plasma = assay: Fraction unbound in monkey plasma at 0.155 to 0.859 nmol/kg, iv by PET analysis; type: ADME, organism-based, Macaca mulatta; conditions: rhesus monkey, in vivo
[2] = Drug level in monkey putamen at 0.155 to 0.859 nmol/kg, iv after 40 mins; type: ADME, organism-based, Macaca mulatta; conditions: rhesus monkey, in vivo

## CN(Cc1ccccc1)C(=O)C(=O)c1c(-c2ccc(F)cc2)n(C)c2ccccc12
[1]
  Activity: inactive
Translocator protein
  Ki: 6.77 nM

## CCCN(CCC)C(=O)C(=O)c1c(-c2ccc(F)cc2)n(C)c2ccccc12
[1]
  Activity: inactive
Translocator protein
  Ki: 19.8 nM

## CCCCCCN(CCCCCC)C(=O)C(=O)c1c(-c2ccc(F)cc2)[nH]c2ccccc12
[1]
  Activity: inactive

## CCCCCN(C)C(=O)C(=O)c1c(-c2ccccc2)n(C)c2ccccc12
[1]
  Activity: inactive
Translocator protein
  Ki: 38.2 nM

## CN(Cc1ccccc1)C(=O)C(=O)c1c(-c2ccccc2)[nH]c2ccccc12
[1]
  Activity: inactive
Translocator protein
  Ki: 12 nM

## CCCN(CCC)C(=O)C(=O)c1c(-c2ccccc2)n(C)c2ccccc12
[1]
  Activity: inactive
Translocator protein
  Ki: 19.5 nM

## CCN(Cc1ccccc1)C(=O)C(=O)c1c(-c2ccccc2)[nH]c2ccccc12
[1]
  Activity: inactive

## CCCCN(CCCC)C(=O)C(=O)c1c(-c2ccccc2)[nH]c2ccccc12
[1]
  Activity: inactive

## CCCN(CCC)C(=O)C(=O)c1c(-c2ccccc2)n(C)c2ccc(F)cc12
[1]
  Activity: inactive
Translocator protein
  Ki: 23.7 nM

## CCCN(CCC)C(=O)C(=O)c1c(-c2ccccc2)[nH]c2ccc(F)cc12
[1]
  Activity: inactive

## CCCN(CCC)C(=O)C(=O)c1c(-c2cc[11c]([N+](=O)[O-])cc2)n(C)c2ccccc12
Plasma
  Fu: 0.71%
[2]
  SUV: 2.32

## CCCCCCN(CCCCCC)C(=O)C(=O)c1c(-c2ccc(F)cc2)n(C)c2ccccc12
[1]
  Activity: inactive
Translocator protein
  Ki: 1.07 nM

## CN(Cc1ccccc1)C(=O)C(=O)c1c(-c2ccc(F)cc2)[nH]c2ccccc12
[1]
  Activity: inactive
Translocator protein
  Ki: 1.8 nM

## CCCCN(CC)C(=O)C(=O)c1c(-c2ccccc2)n(C)c2ccccc12
[1]
  Activity: inactive
Translocator protein
  Ki: 60.2 nM

## CCCN(CCC)C(=O)C(=O)c1c(-c2ccccc2)[nH]c2ccccc12
[1]
  Activity: inactive

## CCCCCN(C)C(=O)C(=O)c1c(-c2ccccc2)[nH]c2ccccc12
[1]
  Activity: inactive

## CN(Cc1ccccc1)C(=O)C(=O)c1c(-c2ccccc2)n(C)c2ccccc12
[1]
  Activity: inactive
Translocator protein
  Ki: 20.9 nM

## CCCCCCN(CCCCCC)C(=O)C(=O)c1c(-c2ccccc2)n(C)c2ccccc12
[1]
  Activity: inactive
Translocator protein
  Ki: 0.299 nM

## CCCN(CCC)C(=O)C(=O)c1c(-c2ccc(F)cc2)[nH]c2ccccc12
[1]
  Activity: inactive

## CCCCN(CC)C(=O)C(=O)c1c(-c2ccccc2)[nH]c2ccccc12
[1]
  Activity: inactive

## CCCCN(CCCC)C(=O)C(=O)c1c(-c2ccccc2)n(C)c2ccccc12
[1]
  Activity: inactive
Translocator protein
  Ki: 0.3 nM

## CCCCN(C)C(=O)C(=O)c1c(-c2ccccc2)[nH]c2ccccc12
[1]
  Activity: inactive

## CCCCCCN(CCCCCC)C(=O)C(=O)c1c(-c2ccccc2)[nH]c2ccccc12
[1]
  Activity: inactive

## CCN(Cc1ccccc1)C(=O)C(=O)c1c(-c2ccccc2)n(C)c2ccccc12
[1]
  Activity: inactive
Translocator protein
  Ki: 2.92 nM

## CCCN(CCC)C(=O)C(=O)c1c(-c2ccc([N+](=O)[O-])cc2)n(C)c2ccccc12
Translocator protein
  Ki: 5.7 nM

## CCCCN(C)C(=O)C(=O)c1c(-c2ccccc2)n(C)c2ccccc12
[1]
  Activity: inactive
Translocator protein
  Ki: 190 nM
